Experimental data: patent US10800791B2, “Triazole ACC inhibitors and uses thereof” (Gilead Apollo, LLC, priority 2015, dated 2020)
In brackets after ≈: the same amount, converted by molar mass. Read-outs that look alike come from different tables or passages of the source.

Assays:
fungal (fACC2) = fungal (fACC2) (UniProt Q00955); settings: read-out: fACC2 (in vitro ACC2 Inhibition Assay, IC50), ADP-Glo, 5 nM ACC2, 20 μM ATP, 20 μM acetyl-CoA
Rhizoctonia solani (Rs) = assay: Growth inhibition assay of fungal pathogens, Rs; type: cell-based; settings: 48 h, mycelial plugs, read-out: Concentration at 90% Inhibition Rs
C. parapsilosis = assay: Antifungal Activity Assay (broth microtiter MIC), C. parapsilosis; type: cell-based, Candida parapsilosis; settings: Lodderomyces parapsilosis, ATCC22019, 48 h, ATCC 22019, 3 replicates, MIC recorded at 48 h, read-out: MIC, C. parapsilosis ATCC 22019
Outline: (§1)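 Colonies from 24 h Sabouraud dextrose agar plates (35° C) are suspended in RPMI 1640+MOPS and diluted to give 2.5×10^3 CFU/mL in the wells. Plates are set up per CLSI M27-A3. Visual MIC is recorded at 48 h.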

[1] = system: Phytophthora capsici (Pc); assay: Growth inhibition assay of fungal pathogens, Pc; type: cell-based; settings: 48 h, read-out: Concentration at 90% Inhibition Pc
Procedure: (§2) Compounds of the present invention were evaluated in a growth inhibition assay to determine the ability to control the growth of fungal pathogens, such as Botrtyis cinerea (Bc), Collectotrichum graminicola (Cg), Diplodia maydis (Dm), Fusarium moniliforme (Fm), Fusarium virguliforme (Fv), Phytophthora capsici (Pc), Rhizoctonia solani (Rs), and Septoria tritici (St).
(§3) Compounds to be tested were dissolved in DMSO at 2.5 mg/ml to produce compound stock solutions (“stocks”). Stocks were diluted with DMSO by a five-fold dilution in a 96-well stock plate, and two sets of final concentrations of 50, 10, and 2 ppm or 2, 0.4, and 0.08 ppm were obtained in vitro. A set of positive controls was also prepared, with various concentrations of Soraphen (2, 0.4, and 0.08 ppm), Metalaxyl (1.1, 0.22, and 0.04 ppm), and Metconazole (2, 0.4, and 0.08 ppm or 0.2, 0.04, and 0.008 ppm) after the five-fold dilutions. Negative controls on each plate included 2% DMSO, water, and a blank (media+2% DMSO).
(§4) Fungal spores were isolated from previously sub-cultured plates of Botrtyis cinerea (Bc), Collectotrichum graminicola (Cg), Diplodia maydis (Dm), Fusarium moniliforme (Fm), Fusarium virguliforme (Fv), Phytophthora capsici (Pc), and Septoria tritici (St). The isolated spores were diluted to individual concentrations with a 17% V8 liquid media. For Rhizoctonia solani (Rs) and Pythium irregulare, 1.5 mm mycelial plugs were used in place of spores and/4 Potato Dextrose Broth (PDB) was used for dilution. The spore concentrations and plug sizes were based on growth curves generated at 48 hours for each pathogen.
(§5) In a second 96-well plate, the spores or mycelial plugs, media, diluted compound solutions, and controls were combined. Once the compound was added, a true final concentration of compound in each well was measured by an OD600 reading, which adjusted for any compound precipitation that might have occurred in the well. Plate readings were repeated at both 24 and 48 hours. The blank negative control was used as a background subtraction. Additional visual ratings were performed at both 24 and 48 hours for checking on precipitation and confirming efficacy. Visual and OD600 ratings of the compounds at 48 hours were compared to the 2% DMSO negative control, and the percent of pathogen growth inhibition was determined based on those values.

C. krusei = assay: Antifungal Activity Assay (broth microtiter MIC), C. krusei; type: cell-based, Candida krusei; settings: Pichia kudriavzevii, ATCC6258, 48 h, ATCC 6258, 3 replicates, MIC recorded at 48 h, read-out: MIC, C. krusei ATCC 6258
Outline: as §1

Septoria tritici (St) = assay: Growth inhibition assay of fungal pathogens, St; type: cell-based; settings: Zymoseptoria tritici, 48 h, Septoria tritici, read-out: Concentration at 90% Inhibition St
Procedure: as §2, §3, §4, §5

Diplodia maydis (Dm) = assay: Growth inhibition assay of fungal pathogens, Dm; type: cell-based; settings: Stenocarpella maydis, 48 h, Diplodia maydis, read-out: Concentration at 90% Inhibition Dm
Procedure: as §2, §3, §4, §5

[2] = system: Collectotrichum graminicola (Cg); assay: Growth inhibition assay of fungal pathogens, Cg; type: cell-based; settings: 48 h, Collectotrichum graminicola, read-out: Concentration at 90% Inhibition Cg
Procedure: as §2, §3, §4, §5

Botrtyis cinerea (Bc) = assay: Growth inhibition assay of fungal pathogens, Bc; type: cell-based; settings: 48 h, Botrtyis cinerea, read-out: Concentration at 90% Inhibition Bc
Procedure: as §2, §3, §4, §5

human (hACC2) = human (hACC2) (Homo sapiens, UniProt O00763); assay: In vitro ACC inhibition assay (ADP-Glo), hACC2; type: biochemical; settings: 5 nM ACC2, 20 μM ATP, 20 μM acetyl-CoA
Procedure: The detailed procedure is as follows. […] 10 μL ADP glo reagent was added. […] 20 μL kinase detection reagent was added.

[3] = system: Fusarium moniliforme (Fm); assay: Growth inhibition assay of fungal pathogens, Fm; type: cell-based; settings: Fusarium verticillioides, 48 h, Fusarium moniliforme, read-out: Concentration at 90% Inhibition Fm
Procedure: as §2, §3, §4, §5

[4] = system: Fusarium virguliforme (Fv); assay: Growth inhibition assay of fungal pathogens, Fv; type: cell-based; settings: 48 h, read-out: Concentration at 90% Inhibition Fv
Procedure: as §2, §3, §4, §5

C. albicans = assay: Antifungal Activity Assay (broth microtiter MIC), C. albicans; type: cell-based, Candida albicans; settings: Candida albicans, ATCC90028, 48 h, ATCC 90028, 3 replicates, MIC recorded at 48 h, read-out: MIC, C. albicans ATCC 90028
Outline: as §1

[5] = growth inhibition vs 2% DMSO control at 48 hours
[6] = growth inhibition at 48 hours vs 2% DMSO control

fungal (fACC2), sequence (Q00955 whole entry): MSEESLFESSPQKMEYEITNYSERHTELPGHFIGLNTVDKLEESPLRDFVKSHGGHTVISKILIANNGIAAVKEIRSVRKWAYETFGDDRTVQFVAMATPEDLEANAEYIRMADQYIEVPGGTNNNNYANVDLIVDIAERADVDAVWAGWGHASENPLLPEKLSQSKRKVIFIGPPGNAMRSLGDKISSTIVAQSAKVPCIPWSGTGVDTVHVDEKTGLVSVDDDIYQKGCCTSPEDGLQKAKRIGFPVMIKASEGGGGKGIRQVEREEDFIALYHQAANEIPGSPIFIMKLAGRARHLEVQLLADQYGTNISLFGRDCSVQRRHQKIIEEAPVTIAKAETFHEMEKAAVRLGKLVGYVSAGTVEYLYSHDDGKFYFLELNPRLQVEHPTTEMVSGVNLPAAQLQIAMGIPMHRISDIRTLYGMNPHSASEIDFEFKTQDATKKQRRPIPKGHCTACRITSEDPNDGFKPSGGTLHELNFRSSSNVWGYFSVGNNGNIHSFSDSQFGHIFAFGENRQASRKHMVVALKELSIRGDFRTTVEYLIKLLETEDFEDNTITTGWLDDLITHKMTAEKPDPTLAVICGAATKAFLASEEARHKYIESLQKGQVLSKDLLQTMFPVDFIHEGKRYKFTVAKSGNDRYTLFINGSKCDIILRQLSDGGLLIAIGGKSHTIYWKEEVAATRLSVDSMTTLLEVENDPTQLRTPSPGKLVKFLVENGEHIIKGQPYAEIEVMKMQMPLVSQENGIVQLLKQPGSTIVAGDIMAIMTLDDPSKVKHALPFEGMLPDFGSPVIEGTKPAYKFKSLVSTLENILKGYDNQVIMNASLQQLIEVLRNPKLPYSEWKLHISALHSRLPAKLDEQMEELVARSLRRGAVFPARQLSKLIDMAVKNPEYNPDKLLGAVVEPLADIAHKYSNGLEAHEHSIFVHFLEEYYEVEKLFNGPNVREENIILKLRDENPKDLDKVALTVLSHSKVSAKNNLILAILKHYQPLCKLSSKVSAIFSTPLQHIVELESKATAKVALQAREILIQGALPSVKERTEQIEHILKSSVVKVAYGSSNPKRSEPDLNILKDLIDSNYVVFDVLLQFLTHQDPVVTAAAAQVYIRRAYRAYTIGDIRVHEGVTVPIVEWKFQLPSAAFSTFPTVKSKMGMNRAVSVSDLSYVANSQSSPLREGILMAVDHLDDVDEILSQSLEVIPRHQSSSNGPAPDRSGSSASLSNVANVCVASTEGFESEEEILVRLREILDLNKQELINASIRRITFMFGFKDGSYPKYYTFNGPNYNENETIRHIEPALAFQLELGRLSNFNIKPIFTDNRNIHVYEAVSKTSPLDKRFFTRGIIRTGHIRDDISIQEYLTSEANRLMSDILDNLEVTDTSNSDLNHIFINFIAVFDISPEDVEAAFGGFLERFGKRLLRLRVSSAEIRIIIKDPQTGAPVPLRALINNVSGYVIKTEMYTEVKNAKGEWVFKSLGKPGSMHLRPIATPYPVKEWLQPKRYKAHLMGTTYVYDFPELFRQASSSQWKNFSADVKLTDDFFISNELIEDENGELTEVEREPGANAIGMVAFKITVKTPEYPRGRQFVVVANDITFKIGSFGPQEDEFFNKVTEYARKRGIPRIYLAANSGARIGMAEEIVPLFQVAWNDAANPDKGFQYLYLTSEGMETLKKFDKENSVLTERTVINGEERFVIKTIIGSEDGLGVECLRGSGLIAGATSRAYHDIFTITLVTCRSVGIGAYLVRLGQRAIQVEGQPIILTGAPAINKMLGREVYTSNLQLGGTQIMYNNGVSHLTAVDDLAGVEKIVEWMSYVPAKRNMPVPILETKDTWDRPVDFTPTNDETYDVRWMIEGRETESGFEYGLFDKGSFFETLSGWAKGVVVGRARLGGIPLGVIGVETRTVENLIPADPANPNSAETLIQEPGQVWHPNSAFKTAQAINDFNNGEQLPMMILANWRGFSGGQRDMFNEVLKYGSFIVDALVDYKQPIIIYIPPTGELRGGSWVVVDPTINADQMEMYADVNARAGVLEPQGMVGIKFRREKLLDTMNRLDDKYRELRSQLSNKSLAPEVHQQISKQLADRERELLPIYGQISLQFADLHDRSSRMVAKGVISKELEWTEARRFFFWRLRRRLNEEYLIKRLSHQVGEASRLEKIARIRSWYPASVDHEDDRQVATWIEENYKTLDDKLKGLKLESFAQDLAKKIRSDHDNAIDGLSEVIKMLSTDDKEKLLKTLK
human (hACC2), sequence (O00763 whole entry): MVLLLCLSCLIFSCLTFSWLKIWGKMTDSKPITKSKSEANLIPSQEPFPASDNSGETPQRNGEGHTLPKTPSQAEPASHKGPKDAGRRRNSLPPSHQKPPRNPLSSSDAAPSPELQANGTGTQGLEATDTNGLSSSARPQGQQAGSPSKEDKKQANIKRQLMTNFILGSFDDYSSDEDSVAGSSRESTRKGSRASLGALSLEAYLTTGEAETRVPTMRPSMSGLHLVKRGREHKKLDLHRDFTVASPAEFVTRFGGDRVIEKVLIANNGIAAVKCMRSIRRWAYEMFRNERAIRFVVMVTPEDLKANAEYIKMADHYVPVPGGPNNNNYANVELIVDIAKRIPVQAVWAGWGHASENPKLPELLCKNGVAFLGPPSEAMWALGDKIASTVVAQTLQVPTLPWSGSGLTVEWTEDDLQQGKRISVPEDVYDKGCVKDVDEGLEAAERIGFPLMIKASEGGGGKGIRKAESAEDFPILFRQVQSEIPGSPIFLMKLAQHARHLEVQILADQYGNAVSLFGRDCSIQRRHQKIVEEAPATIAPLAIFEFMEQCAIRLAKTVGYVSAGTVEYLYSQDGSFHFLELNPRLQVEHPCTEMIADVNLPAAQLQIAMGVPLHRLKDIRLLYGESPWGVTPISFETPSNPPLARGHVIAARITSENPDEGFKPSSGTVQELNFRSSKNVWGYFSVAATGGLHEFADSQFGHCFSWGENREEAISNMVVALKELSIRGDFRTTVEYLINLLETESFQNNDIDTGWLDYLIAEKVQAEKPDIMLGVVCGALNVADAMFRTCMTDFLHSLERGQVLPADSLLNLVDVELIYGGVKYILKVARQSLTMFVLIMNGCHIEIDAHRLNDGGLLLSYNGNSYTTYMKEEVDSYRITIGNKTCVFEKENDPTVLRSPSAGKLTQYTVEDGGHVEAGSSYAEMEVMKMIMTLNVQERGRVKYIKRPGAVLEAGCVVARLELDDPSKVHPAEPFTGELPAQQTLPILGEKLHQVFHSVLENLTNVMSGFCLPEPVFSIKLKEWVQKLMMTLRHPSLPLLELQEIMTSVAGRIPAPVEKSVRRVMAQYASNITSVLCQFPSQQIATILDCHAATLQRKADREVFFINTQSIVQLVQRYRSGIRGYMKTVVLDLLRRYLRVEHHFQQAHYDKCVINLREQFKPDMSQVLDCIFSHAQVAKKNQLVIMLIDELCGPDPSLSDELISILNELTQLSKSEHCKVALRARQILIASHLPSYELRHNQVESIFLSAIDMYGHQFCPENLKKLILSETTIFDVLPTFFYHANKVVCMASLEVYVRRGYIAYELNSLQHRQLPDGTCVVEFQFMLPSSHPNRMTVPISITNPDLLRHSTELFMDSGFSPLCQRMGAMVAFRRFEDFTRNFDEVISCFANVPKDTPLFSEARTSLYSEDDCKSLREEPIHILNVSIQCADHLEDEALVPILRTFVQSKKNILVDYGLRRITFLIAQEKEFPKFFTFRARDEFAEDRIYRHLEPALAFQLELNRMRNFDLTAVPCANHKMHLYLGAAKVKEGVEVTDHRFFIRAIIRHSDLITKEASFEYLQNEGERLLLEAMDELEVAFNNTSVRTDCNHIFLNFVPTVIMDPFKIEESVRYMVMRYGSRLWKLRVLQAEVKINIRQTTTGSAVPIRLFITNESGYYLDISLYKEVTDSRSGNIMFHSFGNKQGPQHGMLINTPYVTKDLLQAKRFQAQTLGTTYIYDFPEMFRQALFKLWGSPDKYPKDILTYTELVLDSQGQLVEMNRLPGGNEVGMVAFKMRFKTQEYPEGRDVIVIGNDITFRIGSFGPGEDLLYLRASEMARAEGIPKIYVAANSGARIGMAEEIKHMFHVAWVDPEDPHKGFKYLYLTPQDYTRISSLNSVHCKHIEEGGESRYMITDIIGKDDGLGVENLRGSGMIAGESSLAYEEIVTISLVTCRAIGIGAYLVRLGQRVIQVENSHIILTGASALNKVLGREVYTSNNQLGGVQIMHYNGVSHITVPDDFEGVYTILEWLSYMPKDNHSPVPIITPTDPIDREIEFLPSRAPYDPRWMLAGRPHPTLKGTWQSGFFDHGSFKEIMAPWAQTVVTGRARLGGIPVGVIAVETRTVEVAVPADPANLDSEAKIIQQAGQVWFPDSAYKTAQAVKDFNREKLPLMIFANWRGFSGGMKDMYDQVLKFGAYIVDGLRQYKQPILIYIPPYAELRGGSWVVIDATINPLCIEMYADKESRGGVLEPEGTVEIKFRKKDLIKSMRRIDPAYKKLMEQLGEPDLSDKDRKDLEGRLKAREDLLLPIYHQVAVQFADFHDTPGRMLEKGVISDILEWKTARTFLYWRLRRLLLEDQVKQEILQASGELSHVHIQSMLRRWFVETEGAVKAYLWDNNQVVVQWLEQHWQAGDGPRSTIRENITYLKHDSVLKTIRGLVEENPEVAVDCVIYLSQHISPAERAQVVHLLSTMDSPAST

Row | Compound | IC50 (fungal (fACC2); Table 2a) [nM] | IC50 (fungal (fACC2); Table 2b, additional results) [nM] | MIC (C. parapsilosis; Table 3a) [µg/mL] | MIC (C. parapsilosis; Table 3b (additional results)) [µg/mL] | MIC (C. krusei; Table 3a) [µg/mL] | MIC (C. krusei; Table 3b (additional results)) [µg/mL] | IC50 (human (hACC2); Table 2a) [nM] | IC50 (human (hACC2); Table 2b, additional results) [nM] | MIC (C. albicans; Table 3a) [µg/mL] | MIC (C. albicans; Table 3b (additional results)) [µg/mL] | IC90 (Rhizoctonia solani (Rs); [6]) [µg/mL] | IC90 [1, 6] [µg/mL] | IC90 (Septoria tritici (St); [6]) [µg/mL] | IC90 (Diplodia maydis (Dm); [6]) [µg/mL] | IC90 [2, 6] [µg/mL] | IC90 (Botrtyis cinerea (Bc); [6]) [µg/mL] | IC90 [3, 6] [µg/mL] | IC90 [4, 6] [µg/mL] | further results
1 | COCCO[C@@H](Cn1c(=O)n([C@H](C)C(=O)NC(C)C)c(=O)c2c(C)c(-n3nccn3)sc21)c1cc(F)ccc1OC [Compound I-67, (R)-2-(1-((R)-2-(5-fluoro-2-methoxyphenyl)-2-(2-methoxy-ethoxy)ethyl)-5-methyl-2,4-dioxo-6-(2H-1,2,3-triazol-2-yl)-1,4-dihydrothieno[2,3-d]pyrimidin-3(2H)-yl)-N-isopropylpropanamide] | 1 to 5 | 1 to 5 | 1.1 to 2 (≈ 1.87 to 3.4 µM) | 1.01 to 2 (≈ 1.72 to 3.4 µM) | 0.25 to 1 (≈ 0.425 to 1.7 µM) | 2.01 to 4 (≈ 3.41 to 6.8 µM) | 5 to 10 | 5 to 10 | 1.1 to 2 (≈ 1.87 to 3.4 µM) | > 4.01 |  |  |  |  |  |  |  |  | IC90 (Rhizoctonia solani (Rs); [5]): 0.08 µg/mL (≈ 0.136 µM); IC90 [1, 5]: > 50 µg/mL; IC90 (Septoria tritici (St); [5]): 10 µg/mL (≈ 17 µM); IC90 (Diplodia maydis (Dm); [5]): 0.08 µg/mL (≈ 0.136 µM); IC90 [2, 5]: 0.08 µg/mL (≈ 0.136 µM); IC90 (Botrtyis cinerea (Bc); [5]): 0.08 µg/mL (≈ 0.136 µM); IC90 [3, 5]: 0.08 µg/mL (≈ 0.136 µM); IC90 [4, 5]: 0.4 µg/mL (≈ 0.68 µM)
2 | CCOC(=O)C(C)(C)n1c(=O)c2c(C)c(-n3nccn3)sc2n(C[C@H](OCCO)c2cc(F)ccc2OC)c1=O [Compound I-74, Ethyl (R)-2-(1-(2-(5-fluoro-2-methoxyphenyl)-2-(2-hydroxyethoxy)ethyl)-5-methyl-2,4-dioxo-6-(2H-1,2,3-triazol-2-yl)-1,4-dihydro-thieno[2,3-d]pyrimidin-3(2H)-yl)-2-methylpropanoate] | 1 to 5 | 1 to 5 | 2.1 to 4 (≈ 3.65 to 6.95 µM) | 2.01 to 4 (≈ 3.49 to 6.95 µM) | 0.25 to 1 (≈ 0.434 to 1.74 µM) | 1.01 to 2 (≈ 1.75 to 3.47 µM) | 5 to 10 | 5 to 10 | 2.1 to 4 (≈ 3.65 to 6.95 µM) | 2.01 to 4 (≈ 3.49 to 6.95 µM) | 0.08 (≈ 0.139 µM) | > 50 | 10 (≈ 17.4 µM) | 0.4 (≈ 0.695 µM) | 0.4 (≈ 0.695 µM) | 0.08 (≈ 0.139 µM) | 0.08 (≈ 0.139 µM) | 0.4 (≈ 0.695 µM) | 
3 | CCc1ccc(F)cc1[C@H](Cn1c(=O)n(C(C)(C)C(=O)NC(C)C)c(=O)c2c(C)c(-n3nccn3)sc21)OCCO [Compound I-124] | 0.4 to 1 | 0.3 to 1 | 0.25 to 1 (≈ 0.426 to 1.7 µM) | 2.01 to 4 (≈ 3.43 to 6.82 µM) | 0.06 to 0.24 (≈ 0.102 to 0.409 µM) | 2.01 to 4 (≈ 3.43 to 6.82 µM) | 1 to 5 | 1 to 5 | 0.25 to 1 (≈ 0.426 to 1.7 µM) | 2.01 to 4 (≈ 3.43 to 6.82 µM) | 0.08 (≈ 0.136 µM) | 10 (≈ 17 µM) | 2 (≈ 3.41 µM) | 0.4 (≈ 0.682 µM) | 0.08 (≈ 0.136 µM) | 0.4 (≈ 0.682 µM) | 0.08 (≈ 0.136 µM) | 0.08 (≈ 0.136 µM) | 
4 | CCc1ccc(F)cc1[C@H](Cn1c(=O)n(C(C)(C)C(=O)NC(C)C)c(=O)c2c(C)c(-n3nccn3)sc21)OCCOC [Compound I-126] | 1 to 5 | 1 to 5 | 1.1 to 2 (≈ 1.83 to 3.33 µM) | 2.01 to 4 (≈ 3.35 to 6.66 µM) | 0.25 to 1 (≈ 0.416 to 1.66 µM) | > 4.01 | 5 to 10 | 5 to 10 | 1.1 to 2 (≈ 1.83 to 3.33 µM) | > 4.01 | 2 (≈ 3.33 µM) | > 50 | 10 (≈ 16.6 µM) | 2 (≈ 3.33 µM) | 0.4 (≈ 0.666 µM) | 0.4 (≈ 0.666 µM) | 0.08 (≈ 0.133 µM) | 0.4 (≈ 0.666 µM) | 
